Laboratory results taken from article PMC12299506, “Flipping the Target: Evaluating Natural LDHA Inhibitors for Selective LDHB Modulation” (Molecules, 2025).

Assays:
[1] = target: T1, LDHB (Homo sapiens, UniProt P07195); assay: LDHB activity assay, 96-well endpoint colorimetric (lactate to pyruvate, NADH/NBT/PMS formazan, 570 nm); assay type: biochemical; details: for IC50: dose-response, nonlinear regression
T1 construct: purchased R&D Systems (Minneapolis, MN, USA) 9205-HB
Description: This assay is based on the detection of NADH generated during the enzymatic conversion of lactate to pyruvate (via reduction of NAD^+), which subsequently reacts with nitro blue tetrazolium (NBT) in the presence of phenazine methosulfate (PMS). This reaction produces a blue-purple formazan dye with a maximum absorbance at approximately 570 nm.
Unless otherwise specified, all chemicals were obtained from Sigma-Aldrich (St. Louis, MO, USA). Recombinant human LDHB (Catalog #: 9205-HB) was purchased from R&D Systems (Minneapolis, MN, USA). […] AXKO-0046 (Catalog #: HY-147216A) was obtained from MedChemExpress (Monmouth Junction, NJ, USA).
This assay quantifies LDHB activity by measuring NADH generation resulting from the conversion of lactate to pyruvate, a reaction catalyzed by LDHB. The produced NADH reacts with nitro blue tetrazolium (NBT) in the presence of phenazine methosulfate (PMS), generating a blue-purple formazan dye detectable at approximately 570 nm.
The reaction was performed in a buffer containing 50 mM CHES (pH 9.6), 150 mM NaCl, 300 μM NBT, 30 μM PMS, and 0.13% gelatin (used to prevent formazan precipitation). Each well was loaded with 90 μL of the reaction buffer followed by 25 μL of a substrate solution comprising 10 mM NAD^+ and 250 mM sodium lactate in the same buffer. Next, 5 μL of the test compound at varying concentrations was added; the buffer alone was used in the control wells. The plates were incubated for 30 s at 25 °C in the dark before measuring the initial absorbance at 570 nm (Ainitial) using a microplate reader (PerkinElmer, Waltham, MA, USA). The reaction was initiated by adding 2 μL of 7.5 μM LDHB. After a 5 min incubation with continuous shaking, a second absorbance measurement (Afinal) was taken.
The difference in absorbance (ΔA570 = Afinal − Ainitial) was used to calculate the amount of NADH produced by referencing a standard curve (0–15 nmol NADH). Readings were corrected for background using a blank lacking LDHB. One unit of enzyme activity was defined as the amount of enzyme producing 1 μmol of NADH per minute at 25 °C. LDHB activity (mU/mL) was calculated using the following Equation (1):(1) LDH activity(mU/mL)=[NADH](nmol)/Tfinal−Tinitial(min)×V(mL)=nmol/min×mL where [NADH] is the amount (in nmol) of NADH that is released between Tfinal and Tinitial, and V is the sample volume (LDHB in mL) added in each well of the 96-well plate.
IC50 values for each compound were calculated using GraphPad Prism v8.0.2 (GraphPad Software Inc., San Diego, CA, USA) by fitting dose–response curves to the enzymatic activity data via nonlinear regression analysis. All the measurements were performed in triplicate.

[2] = system: LDHA; parameters: method as in PMID 34571279; details: EMMA; cited from earlier work
[3] = system: LDHA; parameters: method as in PMID 39054614; details: enzymatic assays; cited from earlier work
[4] = target: T1, LDHB; assay: Effect of pre-incubation time on LDHB inhibition; assay type: biochemical; details: pre-incubation with LDHB for 120 min, compound 50 µM
Protocol: Supplementary Figure S2. The eﬀect of pre-incubation time on the inhibitory activity of […]
Each compound (50 µΜ) was incubated with […] of LDHB in a 10 µL reaction within a 96-well plate for varying times. The reaction was carried out in 80 µL of 50 mM CHES buﬀer (pH 9.6) containing 150 mM NaCl, 300 µΜ NBT, 30 µΜ PMS, and 0.13% gelatin, with 10 µL of substrate mix (10 mM NAD+ and 250 mM sodium lactate) added to initiate the reaction. LDHB activity was measured as described in the text, with control wells lacking inhibitors. Statistical signiﬁcance was determined using one way ANONA (p < 0.05), with ʹn.s.ʹ indicating non- […]
(1 picture or pasted object on this page, not shown here)

[5] = target: T1, LDHB; assay: LDHB kinetic studies (substrate competition, Michaelis-Menten, mixed-model inhibition); assay type: biochemical; details: for mechanism of LDHB inhibition: Michaelis-Menten analysis, vs lactate and NAD+; for Vmax, NAD+: NAD+ varied, 25 mM sodium lactate; for Vmax, lactate: lactate varied, NAD+ 1 mM; for Ki / α (alpha factor, mechanism of inhibition): mixed-model inhibition fit; for α (alpha factor, mechanism of inhibition): α < 1 uncompetitive
Protocol: These kinetic studies followed the classical Michaelis–Menten framework. For NAD^+ titration, assays were performed using eight NAD^+ concentrations (120, 240, 360, 480, 700, 900, 1000, and 1200 μM) in the presence of 25 mM sodium lactate. For lactate titration, eight lactate concentrations (2.5, 5, 10, 15, 20, 25, 37.5, and 50 mM) were evaluated with a fixed NAD^+ concentration of 1 mM. Each reaction was carried out with 2.5 nM LDHB and increasing concentrations of either inhibitor (5–100 μM), followed by incubation at room temperature for 6.5 min. Initial reaction velocities were determined and fitted to a nonlinear Michaelis–Menten model to extract apparent kinetic parameters (Km and Vmax) using GraphPad Prism v8.0.2 (GraphPad Software Inc., San Diego, CA, USA). Lineweaver–Burk plots (1/V vs. 1/[S]) were also generated to visualize shifts in enzyme kinetics. To complement these analyses, the data were further examined using a mixed-model inhibition approach within GraphPad Prism. This model, which avoids the distortions associated with reciprocal transformations, evaluates inhibition kinetics using polynomial regression and is governed by the following equations [70]. The mixed-model fit is described by Equations (2)–(4), and contains competitive, uncompetitive, and noncompetitive inhibition terms:(2) Vmaxapp=Vmax/(1+I/a·Ki) (3) Kmapp=Km·(1+I/Ki)/(1+I/a·Ki) (4) Y=Vmaxapp·X/(Kmapp+X)
In the above equations, Vmaxapp and Kmapp are the maximum enzyme activity and Michaelis–Menten constant, respectively, in the presence of an inhibitor; Vmax and Km represent the maximum enzyme velocity and Michaelis–Menten constant, respectively, in the absence of an inhibitor; and Ki is the inhibition constant. In addition, X is the substrate concentration, Y is the enzyme activity, I is the inhibitor concentration, and alpha (α) is a coefficient that defines the mechanism of inhibition.

[6] = target: LDHA; details: cited from earlier work
[7] = target: LDHC; details: cited from earlier work

T1 sequence (P07195 whole entry): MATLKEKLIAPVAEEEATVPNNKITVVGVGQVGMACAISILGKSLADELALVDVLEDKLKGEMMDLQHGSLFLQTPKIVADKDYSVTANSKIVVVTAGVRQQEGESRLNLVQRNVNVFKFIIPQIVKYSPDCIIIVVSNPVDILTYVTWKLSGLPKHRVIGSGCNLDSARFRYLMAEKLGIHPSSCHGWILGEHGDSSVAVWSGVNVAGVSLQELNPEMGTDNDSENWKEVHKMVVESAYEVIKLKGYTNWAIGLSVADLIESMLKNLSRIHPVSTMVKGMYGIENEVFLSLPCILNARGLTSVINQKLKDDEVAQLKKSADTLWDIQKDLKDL

SMILES	inhibition at 50 µM ([1]; compound at 50 µM)	IC50 [1]	inhibition rate of LDHA activity [2]	IC50 [3]	change of inhibitory effect with longer pre-incubation time [4]	mechanism of LDHB inhibition [5]	Vmax, NAD+ ([5]; inhibitor 10 μM)	Vmax, NAD+ ([5]; inhibitor 20 μM)	Vmax, NAD+ ([5]; inhibitor 30 μM)	Vmax, NAD+ ([5]; inhibitor 40 μM)	Vmax, NAD+ ([5]; inhibitor 50 μM)	Vmax, NAD+ ([5]; inhibitor 75 μM)	Vmax, NAD+ ([5]; inhibitor 100 μM)	Vmax, lactate ([5]; inhibitor 10 μM)	Vmax, lactate ([5]; inhibitor 20 μM)	Vmax, lactate ([5]; inhibitor 30 μM)	Vmax, lactate ([5]; inhibitor 40 μM)	Vmax, lactate ([5]; inhibitor 50 μM)	Vmax, lactate ([5]; inhibitor 75 μM)	Vmax, lactate ([5]; inhibitor 100 μM)	other results
c1ccc(CNCCc2c(CNC3CCCCCC3)[nH]c3ccccc23)cc1 [AXKO-0046, reference compound]	~75%	0.00556 µM																			
CC[C@@]1(O)C(=O)OCc2c1cc1n(c2=O)Cc2cc3ccccc3nc2-1 [Camptothecin]			no inhibitory effect																		inhibition of LDHB activity ([1]; compound at 50 µM): minimal inhibition
O=c1c(O)c(-c2ccc(O)c(O)c2)oc2cc(O)ccc12 [Fisetin]	~22%			0.066 µM																	
O=c1cc(-c2ccc(O)c(O)c2)oc2cc(O)cc(O)c12 [Luteolin]	~55%	32.2 µM	50.7%	1.79 µM	did not increase	uncompetitive inhibition	945 ± 27 mU/mL	868 ± 35 mU/mL	774 ± 32 mU/mL	664 ± 40 mU/mL	563 ± 29 mU/mL	456 ± 27 mU/mL	417 ± 22 mU/mL	942 ± 31 mU/mL	888 ± 16 mU/mL	832 ± 21 mU/mL	749.2 ± 17 mU/mL	624 ± 24 mU/mL	506 ± 15 mU/mL	406 ± 22 mU/mL	Ki ([5]; with NAD+): 194 µM; α (alpha factor, mechanism of inhibition) ([5]; with NAD+): 0.34; Ki ([5]; with lactate): 349 µM; α (alpha factor, mechanism of inhibition) ([5]; with lactate): 0.21
O=c1c(O)c(-c2ccc(O)c(O)c2)oc2cc(O)cc(O)c12 [Quercetin]	~50%	37.7 µM	53.6%	33.6 µM	did not increase	uncompetitive inhibition	952 ± 36 mU/mL	861 ± 22 mU/mL	761 ± 52 mU/mL	701 ± 44 mU/mL	605 ± 46 mU/mL	504 ± 44 mU/mL	454 ± 33 mU/mL	938 ± 29 mU/mL	881 ± 19 mU/mL	791 ± 37 mU/mL	689 ± 53 mU/mL	621 ± 23 mU/mL	557 ± 37 mU/mL	478 ± 26 mU/mL	Ki ([5]; with NAD+): 539 µM; α (alpha factor, mechanism of inhibition) ([5]; with NAD+): 0.14; Ki ([5]; with lactate): 265 µM; α (alpha factor, mechanism of inhibition) ([5]; with lactate): 0.31
Cc1cc2c(C(C)C)c(O)c(O)c(C=O)c2c(O)c1-c1c(C)cc2c(C(C)C)c(O)c(O)c(C=O)c2c1O [gossypol, Gossypol]																					Ki [6]: 1.9 µM; Ki [7]: 4.2 µM
